Test results: patent US20080085917A1, “7-(2-(4-(3-TRIFLUOROMETHYL-PHENYL)-1,2,3,6-TETRAHYDROPYRID-1-YL)ETHYL)ISOQUINOLINE BESYLATE SALT, PREPARATION AND THERAPEUTIC USE THEREOF” (sanofi-aventis, priority 2005, published 2008)

Assays:
Assay type in all cases: physicochemical
[1] = Chemical stability of salts exposed to heat and moisture, measured by HPLC; settings: for Purity after 14 days at 80° C./80% RH: 14 days at 80° C. and 80% relative humidity; for Initial purity: before exposure (baseline of stability study)
Protocol: The chemical stability of the compound of formula (I) in the dihydrochloride, dihydrogensulfate, fumarate, dibenzenesulfonate and monobenzenesulfonate forms was studied.
Each of the five above salts is exposed to heat, to moisture and to light under the conditions below: • 14 days at a temperature of 80° C., • 14 days at a temperature of 80° C. and a relative humidity (RH) level of 80%, • exposure to light of 400 W.Hrs.m^−2.

[2] = Water content by thermogravimetric analysis (TGA); settings: for Loss in weight / Nature of the solvent: TGA; for Loss in weight: from 25° C., 10° C./min, nitrogen purge; for Nature of the solvent: solvent lost; for Hydration state: from TGA curve
Protocol: The water content of the five above salts was studied by thermogravimetric analysis (TGA).
The TGA tests are carried out in a TA8000 device equipped with a TGA850 module. The temperature calibrations are carried out conventionally using the melting of indium.
The experimental parameters employed were:
Final temperature: 250° C. for the dihydrochloride, 300° C. for the fumarate, 200° C. or 250° C. for the dihydrogensulfate, 250° C. or 300° C. for the dibesylate and the besylate.
The system is purged using nitrogen at a flow rate of 70 ml/min.
The pans used were 70 μl silica pans.

[3] = Water sorption isotherms (DVS); settings: 25° C.
Protocol: The DVS tests are carried out using a DVS-1 system. From 20 to 32 mg of product are used per analysis and the temperature is maintained at 25° C. plus or minus 0.2° C. Nitrogen is used as carrier gas at a flow rate of 100 ml/min in the sample chamber.

Molecule | Purity after 14 days at 80° C. [1] | Purity after 14 days at 80° C./80% RH [1] | Initial purity [1] | Loss in weight [2] | Nature of the solvent [2] | Hydration state [2] | Hygroscopicity (sorption isotherms), in words [3] | Hysteresis in sorption/desorption [3] | Water acquired during the sorption cycle ([3]; between 30 and 80% relative humidity)
FC(F)(F)c1cccc(C2=CCN(CCc3ccc4ccncc4c3)CC2)c1.O=S(=O)(O)c1ccccc1 [Besylate, 7-(2-(4-(3-(trifluoromethyl)phenyl)-1,2,3,6-tetrahydropyrid-1-yl)ethyl)isoquinoline besylate] | 97.9% | 96.5% | 98.2% | 0.11 % weight/weight | Water | not hydrated | least hygroscopic of all the salts tested | No hysteresis | 
FC(F)(F)c1cccc(C2=CCN(CCc3ccc4ccncc4c3)CC2)c1.O=S(=O)(O)c1ccccc1.O=S(=O)(O)c1ccccc1 [Dibesylate] | 97.5% | 96.2% | 97.5% | 0.72 % weight/weight | Water |  | significant acquisition of water | hystereses observed during the desorption | 
Cl.Cl.FC(F)(F)c1cccc(C2=CCN(CCc3ccc4ccncc4c3)CC2)c1 [Dihydrochloride] | 95.6% | 92.9% | 97.0% | 11.0 % weight/weight | Water | three water molecules per mole of anhydrous salt |  | weak hysteresis | 1.9 % weight/weight
FC(F)(F)c1cccc(C2=CCN(CCc3ccc4ccncc4c3)CC2)c1.O=S(=O)(O)O.O=S(=O)(O)O [Dihydrogensulfate] | 91.9% | 88.5% | 93.3% | 2.06 % weight/weight | Solvent + water |  | significant acquisition of water | hystereses observed during the desorption | 
Fumarate | 96.7% | 32.4% | 97.9% | 0.45 % weight/weight | Solvent + water |  | weakly hygroscopic |  | 
